# From US9901637B2, “Vitamin D3 and analogs thereof for treating alopecia” (priority 2009, dated 2018)
# Assays:
# [1] = system: chemotherapy-induced alopecia (CIA); assay: Alopecia in chloroleukemic rats receiving multi-course chemotherapy, topical calcitriol; settings: for Extent of Alopecia: number of rats with grade 4+: rats treated with Cyclophosphamide (CTX), 4+=75-100% alopecia
# Description: Long Evans Rats (Harlan Laboratories, Inc) were 3 days old upon arrival. The weight of the animals was obtained upon arrival and every day until the conclusion of the experiments using an electronic scale (American Scientific Products TL 410s). Rats were housed for two days prior to the beginning of experiments. Animals were then randomized in four groups.
# Treatments were started on day 6 after birth. […] Each application entailed rubbing an area of 2 cm^2 for 10 seconds with right index finger covered with a nitrile exam glove. After the completion of the treatments, each rat was individually separated for 6 hours. Subsequently each rat's head and back was washed with mild hand soap (Soft CIDE-EC from VWR International) and distilled water. Pups where then placed back with their mothers and taken back to the animal rooms. For the second anagen cycle, adult rats were placed back in their cages with their littermates and taken back to the animal rooms.
# On day 23 after birth, a blood sample was taken from all rats and differentials were performed. Rats with leukemia were sacrificed while rats without leukemia were used for further experiments. A second differential was performed on day 31, and leukemic animals were sacrificed.
# Vials of 1 mL were subdivided and kept in the refrigerator at 4° C. […] Unused preparations were disposed of.
# For the second course of chemotherapy, rats received 20 mg/kg ADM on days 47 to 49 as described above.
# MIAC51 = assay: Survival (cure) rate of chloroleukemic rats after two rounds of chemotherapy; format: in vivo, Long Evans Rats; settings: rats treated with Cyclophosphamide (CTX), after Two Rounds of Chemotherapy
# Protocol: Animals were then randomized in four groups. All rats received MIAC51 as described below.
# On day 5 after birth all rats received 1×105 MIAC51 intraperitoneally in 0.1 ml of serum free (SF) RPMI. MIAC51 were cultured in RPMI 1640 supplemented with L-glutamine and 10% fetal bovine serum at […] in a 5% CO2, 100% humidity incubator. Cells were grown to 50% confluency (1.5×106 ml) collected in 50 ml conical tubes, centrifuged at 600 g for 10 minutes at room temperature and resuspended in SF-RPMI at a concentration of 1×10^6/ml prior to injection.
# [2] = system: chemotherapy-induced alopecia (CIA); settings: neonatal rats, i.p. chemotherapy, recorded 10 days after last dose
# Protocol: Specifically, Long Evans and Sprague Dawley rats with pups were purchased from Harlan Laboratories, Inc. They were housed and fed according to applicable animal handling rules and regulations. Pups were allowed to acclimate for 48 hours prior to the start of experiments. […] Rats were isolated from their littermates and mother for 6-hour periods of time. Subsequently, the treated area was cleaned with soap and water and pups were returned to their litters. On day 13, rats either received etoposide (1.5 mg/kg daily for 3 days) or cyclophosphamide (CTX) (37.5 mg/kg once) or combination cyclophosphamide (35 mg/kg once) and doxorubicin (2.5 mg/kg daily for 3 days). All chemotherapies were purchased from Sigma and were given intraperitoneally (i.p.) in a total volume of 0.1 mL. Alopecia was recorded 10 days after the last dose of chemotherapy.
smiles,measurement,setting,value
"O=P1(N(CCCl)CCCl)NCCCO1 (centres unmarked) [CTX, cyclophosphamide]",extent of alopecia (grade) in all rats receiving chemotherapy alone,"[1]; chloroleukemic Long Evans rats, after the first round of chemotherapy",+4
same,Extent of Alopecia: number of rats with grade 4+,[1]; after First Round of Chemotherapy,40
same,Extent of Alopecia: number of rats with grade 4+,[1]; after Second Round of Chemotherapy,8
same,"Survival Rate, % cured",MIAC51,20%
same,alopecia in rats receiving chemotherapy without calcitriol,[2],totally alopecic
